According to the supplement of paper PMC10307832:

Legend:
Assay in all cases: relative viability (nuclei count vs DMSO), 5 days (fraction); higher = more cells survive
AZ3146 = compound: CN1CCC(CC1)OC2=CC(=C(C=C2)NC3=NC=C4C(=N3)N(C(=O)N4C)C5CCCC5)OC [AZ3146]
Method in brief: (§1)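 After an overnight hold at 37 °C, lung cancer cell lines in 1536-well plates were pinned with five library-drug doses (not always all listed), each √10 from the next, on vehicle-anchored plates. The cells stayed 5 days without fresh medium, then a one-step fix, permeabilisation and Hoechst stain preceded 4× imaging and MetaXpress nuclear counts. A plate passed only with control CV under 25% and at least one doubling. Viability is the median, over plates, of treated-well nuclei relative to vehicle-well nuclei.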

GSK-J4 = compound: CCOC(=O)CCNc1cc(N2CCc3ccccc3CC2)nc(-c2ccccn2)n1 [GSK-J4]
Method in brief: as §1

AZ3146 + Pemetrexed = compound: CN1CCC(CC1)OC2=CC(=C(C=C2)NC3=NC=C4C(=N3)N(C(=O)N4C)C5CCCC5)OC [AZ3146] + Nc1nc2[nH]cc(CCc3ccc(C(=O)N[C@@H](CCC(=O)O)C(=O)O)cc3)c2c(=O)[nH]1 [Pemetrexed] (partner 0.2 µM)
Method in brief: (§2)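 Relative viability is defined as nuclei in treated wells over nuclei in vehicle wells. Duplicate plates were run and medians reported. Lung cancer cell lines in 1536-well plates were dosed by pin tool one day after seeding, with one drug or with a fixed anchor-drug dose plus five library-drug doses (not always all listed) in √10 steps, and nuclei were counted after 5 days.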

GSK-J4 + OSI-027 = compound: CCOC(=O)CCNc1cc(N2CCc3ccccc3CC2)nc(-c2ccccn2)n1 [GSK-J4] + COc1cccc2cc(-c3nc([C@H]4CC[C@H](C(=O)O)CC4)n4ncnc(N)c34)[nH]c12 [OSI-027] (partner 0.5 µM)
Method in brief: as §2

| Cell Line | relative viability (AZ3146; 0.08 µM) | relative viability (AZ3146; 0.253 µM) | relative viability (AZ3146; 0.8 µM) | relative viability (AZ3146; 2.53 µM) | relative viability (AZ3146; 8 µM) | relative viability (GSK-J4; 0.5 µM) | relative viability (GSK-J4; 1.581 µM) | relative viability (GSK-J4; 5 µM) | relative viability (GSK-J4; 15.81 µM) | relative viability (GSK-J4; 50 µM) | relative viability (AZ3146 + Pemetrexed; first compound 0.08 µM) | relative viability (AZ3146 + Pemetrexed; first compound 0.253 µM) | relative viability (AZ3146 + Pemetrexed; first compound 0.8 µM) | relative viability (AZ3146 + Pemetrexed; first compound 2.53 µM) | relative viability (AZ3146 + Pemetrexed; first compound 8 µM) | relative viability (GSK-J4 + OSI-027; first compound 0.5 µM) | relative viability (GSK-J4 + OSI-027; first compound 1.581 µM) | relative viability (GSK-J4 + OSI-027; first compound 5 µM) | relative viability (GSK-J4 + OSI-027; first compound 15.81 µM) | relative viability (GSK-J4 + OSI-027; first compound 50 µM) |
| --- | --- | --- | --- | --- | --- | --- | --- | --- | --- | --- | --- | --- | --- | --- | --- | --- | --- | --- | --- | --- |
| 201T | 0.997 | 0.993 | 0.941 | 0.964 | 0.983 | 1.01 | 0.983 | 0.928 | 0.947 | 0.943 | 0.275 | 0.328 | 0.32 | 0.331 | 0.303 | 0.668 | 0.414 | 0.932 | 0.691 | 0.721 |
| A549 | 0.852 | 0.988 | 1.03 | 0.952 | 0.462 | 0.981 | 0.731 | 0.862 | 0.838 | 0.924 | – | – | – | – | – | – | – | – | – | – |
| A-427 | 0.963 | 1 | 1.01 | 1.04 | 0.766 | 1 | – | 0.766 | 0.865 | 0.37 | 0.898 | 0.923 | 0.976 | 0.926 | 0.766 | 0.536 | – | 0.439 | 0.396 | 0.198 |
| ABC-1 | 0.892 | 0.901 | 1.02 | 1.02 | 0.867 | 1.04 | 0.869 | 0.803 | 0.797 | 0.403 | – | – | – | – | – | 0.533 | 0.442 | 0.441 | 0.357 | 0.336 |
| BEN | – | 0.898 | 0.886 | 0.989 | 0.943 | 1.06 | 0.864 | – | 0.876 | 0.788 | – | 0.641 | 0.651 | 0.75 | 0.8 | 0.334 | 0.249 | – | 0.315 | 0.212 |
| CAL-12T | 1.03 | 0.978 | 1.07 | 1.09 | 0.776 | 0.94 | 0.838 | 1.05 | 0.93 | 0.834 | 1.1 | 1.15 | 1.29 | 1.33 | 1.13 | 0.631 | 0.646 | 0.778 | 0.61 | 0.528 |
| COR-L23 | 0.928 | 1.03 | 1.03 | 0.974 | 0.977 | 0.965 | 0.894 | – | 1 | 0.852 | 0.195 | 0.196 | 0.215 | 0.208 | 0.195 | 0.753 | 0.603 | – | 0.733 | 0.625 |
| COR-L 105 | 0.82 | 0.874 | 0.939 | 0.825 | 0.504 | 0.925 | 0.864 | 0.795 | 0.949 | 0.861 | 1.19 | 1.22 | 0.962 | 0.645 | 0.799 | 0.631 | 0.64 | 0.546 | 0.585 | 0.692 |
| Calu-6 | 0.964 | 1.03 | 0.948 | 0.948 | 0.799 | 0.979 | 0.945 | 0.941 | 0.983 | 1.01 | – | – | – | – | – | – | – | – | – | – |
| ChaGo-K-1 | 0.942 | 0.885 | 0.964 | 1.04 | 0.741 | 0.986 | – | 0.993 | 0.974 | 0.918 | 0.562 | 0.248 | 0.254 | 0.258 | 0.248 | 0.591 | 0.419 | 0.441 | 0.533 | 0.428 |
| EBC-1 | 0.915 | 0.938 | 0.884 | 0.979 | 0.602 | 0.817 | 0.892 | 0.96 | 0.961 | 0.668 | – | – | – | – | – | – | – | – | – | – |
| EKVX | 0.954 | 0.999 | 0.93 | 1 | 1.04 | 0.998 | 0.71 | 1.03 | 0.85 | 0.898 | 0.441 | 0.424 | 0.365 | 0.389 | 0.422 | 0.673 | 0.412 | 0.619 | 0.6 | 0.567 |
| EMC-BAC-2 | 0.772 | 0.76 | 1.07 | 1.1 | 0.907 | 0.971 | 0.909 | 0.647 | 0.882 | 0.955 | 0.379 | 0.442 | 0.433 | 0.466 | 0.411 | 0.347 | 0.386 | 0.249 | 0.315 | 0.311 |
| EPLC-272H | 0.789 | 0.895 | 0.92 | 0.992 | 0.969 | 0.994 | 0.678 | 0.93 | 0.814 | 0.734 | 0.366 | 0.369 | 0.37 | 0.341 | 0.396 | 0.313 | 0.255 | 0.261 | 0.293 | 0.192 |
| H3255 | 0.935 | 0.902 | 1.01 | 1.09 | 0.981 | 0.997 | 0.869 | 0.91 | 0.811 | 0.854 | 0.597 | 0.536 | 0.542 | 0.6 | 0.574 | 0.616 | 0.545 | 0.627 | 0.529 | 0.531 |
| HARA | 0.808 | 0.902 | 1.01 | 1.07 | 0.866 | 1.06 | 0.959 | – | 0.881 | 1.05 | 0.22 | 0.257 | 0.245 | 0.217 | 0.231 | 0.548 | – | – | 0.282 | 0.219 |
| HCC-15 | 0.98 | 1.05 | 0.993 | 1.03 | 0.99 | 0.929 | 0.716 | 0.927 | 0.895 | 0.767 | 0.222 | 0.22 | 0.221 | 0.224 | 0.207 | 0.722 | – | 0.634 | 0.469 | 0.285 |
| HCC-44 | 0.969 | 0.917 | 1.09 | 1.02 | 0.89 | 1.01 | 0.864 | 0.861 | 1.02 | 1.01 | 0.601 | 0.654 | 0.687 | 0.698 | 0.654 | 0.51 | 0.31 | – | 0.387 | 0.483 |
